{"source": "patent US20110165277A1", "about": "“Biological Materials and Uses Thereof” (priority 2008, published 2011)", "key": {"rumen fluid": {"tested_on": "rumen fluid", "assay": "Methane production by buffered rumen fluid, sandalwood oil and synthetic replacements (Example 4)", "format": "cell-based, cow", "conditions": "5, 50 or 100 or 500 pg/ml; 16 hours", "protocol": "Thirty ml of a 33% buffered solution of rumen fluid withdrawn from a rumen canulated cow was incubated with 0.3 g of a 50:50 hay barley mix at 39° C. under anaerobic conditions\nAfter 16 hours the volume of gas produced and the percentage of methane in the headspace was measured and the resultant fermentation fluid was analysed for volatile fatty acids by HPLC.\nSandalwood oil from either Fluka or SAFC and two different batches of Javanol (Givaudan) or a single batch of Santaliff (International Flavors & Fragrances) (both Javanol and Santaliff are artifical Sandalwood replacements) were added in the amount of 5, 50 or 100 or 500 pg/ml to the 30 ml buffered solution of rumen fluid prior to incubation."}, "[1]": {"tested_on": "rumen contents in Rusitec", "assay": "Rusitec with Sandalwood oil and Javanol (Example 5)", "format": "cell-based, cattle", "conditions": "100 μg/ml", "protocol": "The rumen-simulation technique (Rusitec) was used as described by Czerkawski and Breckenridge (1977). The nominal volume in each reaction vessel was 850 ml and the dilution rate was set at 0.88 per day, the infused liquid being artificial saliva (McDougall, Biochem J 1948 43, 99-109) at pH 8.4. Inocula for the fermentation vessels were obtained from a pooled sample (liquid and particulate rumen contents) from three rumen-cannulated cattle fed on a conserved diet. On the first day of the experiment 300 ml of strained rumen fluid, 300 ml of water and 300 ml of artificial saliva were placed in each reaction vessel. Solid rumen contents (80 g) were weighed into a nylon bag and one of these was placed inside the food container in each vessel together with a bag (20 g/d) of a basal diet of grass hay, barley, molasses, soyabean meal and a vitamin and mineral mixture. The food was provided in nylon bags, pore size 50 μm, which were gently agitated in the liquid phase. Two bags were present at any time and one bag was replaced each day to give a 48 h incubation. The bags that were removed from the vessels were placed in plastic bags, and their contents washed and squeezed with 40 ml of artificial saliva. This was done twice for each bag, and the combined washings were poured back into the reaction vessels. Fermentation vessels were flushed with anaerobic grade CO2 before filling, after filling, and then every day during feeding (when the nylon bags with the food were changed). The duration of the experiment was 19 days, during which four vessels received Sandalwood oil (added the basal diet to reach an initial concentration of 100 μg/ml) four vessels received Javanol (added the basal diet to reach an initial concentration of 100 μg/ml) the remaining vessels were controls. Volatile fatty acids, methane and bacterial numbers were measured on days 18 and 19 of the experiment. On day 19, Listeria inocula was added and it numbers traced over the last 24 hr of the experiment."}, "Listeria monocytogenes": {"tested_on": "Listeria monocytogenes", "assay": "Listeria survival in Rusitec (Example 5)", "format": "cell-based", "conditions": "100 μg/ml; 24h after pathogen addition", "protocol": "Volatile fatty acids, methane and bacterial numbers were measured on days 18 and 19 of the experiment. On day 19, Listeria inocula was added and it numbers traced over the last 24 hr of the experiment."}, "[2]": {"assay": "Further sandalwood analogues: volatile fatty acid and methane production (Example 7, Table 14)", "format": "cell-based", "protocol": "(§1) Further testing of sandalwood analogues was conducted following the protocols described in Examples 3 and 5."}, "[3]": {"assay": "Further sandalwood analogues: CH4 per bottle, compound in DMSO or ETOH (Example 7, Table 15)", "format": "cell-based", "conditions": "for CH4: single bottles rep a, b, c, listed as Javanol batch no. 9000699712", "protocol": "as §1"}}, "note": "Several values for one entry are separate records, joined by “and”; a condition that tells them apart may be missing. Identical values can stand only once."}
{"smiles": "CC1(CO)CC1CC1CC2CC2(C)C1(C)C", "note": "(stereo not shown) [Javanol, (1-Methyl-2-(1,2,2-trimethylbicyclo[3.1.0]hex-3-ylmethyl)cyclopropyl)methanol]", "values": [{"measurement": "methane compared to the control experiments", "setting": "rumen fluid", "result": "significantly decreased"}, {"measurement": "48 h DM degradation (%)", "setting": "[1]", "result": 33.6, "unit": "%"}, {"measurement": "Acetate", "setting": "[1]", "result": 23.9, "unit": "mmol/day"}, {"measurement": "Bacteria counts Cellulolytic", "setting": "[1]", "result": "1.9e+06", "unit": "mL⁻¹"}, {"measurement": "Bacteria counts Total", "setting": "[1]", "result": "4.9e+09", "unit": "mL⁻¹"}, {"measurement": "Butyrate", "setting": "[1]", "result": 4.4, "unit": "mmol/day"}, {"measurement": "Methane production", "setting": "[1]", "result": "decreased"}, {"measurement": "Propionate", "setting": "[1]", "result": 16.7, "unit": "mmol/day"}, {"measurement": "Total VFA", "setting": "[1]", "result": 45.0, "unit": "mmol/day"}, {"measurement": "VFA production", "setting": "[1]", "result": "no effect"}, {"measurement": "CH4", "setting": "[1]; days 18 and 19", "result": 2.51, "unit": "mmol/day"}, {"measurement": "Listeria monocytogenes survival", "setting": "Listeria monocytogenes", "result": "not"}, {"measurement": "Acetate", "setting": "[2]; 5 μg/ml", "result": "2401 μmol/g of feed added"}, {"measurement": "Butyrate", "setting": "[2]; 5 μg/ml", "result": "538 μmol/g of feed added"}, {"measurement": "Methane", "setting": "[2]; 5 μg/ml", "result": "978 μmol/g of feed added"}, {"measurement": "Propionate", "setting": "[2]; 5 μg/ml", "result": "493 μmol/g of feed added"}, {"measurement": "TVFA", "setting": "[2]; 5 μg/ml", "result": "3432 μmol/g of feed added"}, {"measurement": "Acetate", "setting": "[2]; 50 μg/ml", "result": "2622 μmol/g of feed added"}, {"measurement": "Butyrate", "setting": "[2]; 50 μg/ml", "result": "593 μmol/g of feed added"}, {"measurement": "Methane", "setting": "[2]; 50 μg/ml", "result": "904 μmol/g of feed added"}, {"measurement": "Propionate", "setting": "[2]; 50 μg/ml", "result": "524 μmol/g of feed added"}, {"measurement": "TVFA", "setting": "[2]; 50 μg/ml", "result": "3739 μmol/g of feed added"}, {"measurement": "Acetate", "setting": "[2]; 100 μg/ml", "result": "2504 μmol/g of feed added"}, {"measurement": "Butyrate", "setting": "[2]; 100 μg/ml", "result": "499 μmol/g of feed added"}, {"measurement": "Methane", "setting": "[2]; 100 μg/ml", "result": "859 μmol/g of feed added"}, {"measurement": "Propionate", "setting": "[2]; 100 μg/ml", "result": "542 μmol/g of feed added"}, {"measurement": "TVFA", "setting": "[2]; 100 μg/ml", "result": "3545 μmol/g of feed added"}, {"measurement": "Acetate", "setting": "[2]; 500 μg/ml", "result": "2045 μmol/g of feed added"}, {"measurement": "Butyrate", "setting": "[2]; 500 μg/ml", "result": "229 μmol/g of feed added"}, {"measurement": "Methane", "setting": "[2]; 500 μg/ml", "result": "744 μmol/g of feed added"}, {"measurement": "Propionate", "setting": "[2]; 500 μg/ml", "result": "833 μmol/g of feed added"}, {"measurement": "TVFA", "setting": "[2]; 500 μg/ml", "result": "3107 μmol/g of feed added"}, {"measurement": "CH4 (mean of rep a-c)", "setting": "[3]; 150 ug/30 ml in 200 ul DMSO", "result": 913.6635, "unit": "µmol/g"}, {"measurement": "CH4", "setting": "[3]; 150 ug/30 ml in 200 ul DMSO", "result": "956.9591 µmol/g and 888.4071 µmol/g and 895.6242 µmol/g"}, {"measurement": "CH4 (mean of rep a-c)", "setting": "[3]; 150 ug/30 ml in 200 ul ETOH", "result": 1373.522, "unit": "µmol/g"}, {"measurement": "CH4", "setting": "[3]; 150 ug/30 ml in 200 ul ETOH", "result": "1403.051 µmol/g and 1381.609 µmol/g and 1335.905 µmol/g"}, {"measurement": "CH4 (mean of rep a-c)", "setting": "[3]; 15000 ug/30 ml in 200 ul DMSO", "result": 605.2838, "unit": "µmol/g"}, {"measurement": "CH4", "setting": "[3]; 15000 ug/30 ml in 200 ul DMSO", "result": "647.283 µmol/g and 563.0216 µmol/g and 605.5467 µmol/g"}, {"measurement": "CH4 (mean of rep a-c)", "setting": "[3]; 15000 ug/30 ml in 200 ul ETOH", "result": 1158.255, "unit": "µmol/g"}, {"measurement": "CH4", "setting": "[3]; 15000 ug/30 ml in 200 ul ETOH", "result": "1145.346 µmol/g and 1230.103 µmol/g and 1099.314 µmol/g"}]}
